Reference: paper PMC10199020 (Nature Communications, 2023)
Bridge positions count the residues as written; N and C are the ends. Square brackets hold non-standard residues; d marks the D form. Peptide text beside a SMILES is read from it. * marks the point of attachment. 5TAMRA = CN(C)c1ccc2c(c1)Oc1cc(N(C)C)ccc1C21OC(=O)c2cc(C(=O)*)ccc21; 2Nal = N[C@@H](Cc1ccc2ccccc2c1)C(=O)O; Pen = CC(C)(S)[C@H](N)C(=O)O; Aib = CC(C)(N)C(=O)O

Biological target: T1, NL-IL23R with IL12Rβ1 (Homo sapiens, UniProt P42701+Q5VWK5)
T1 construct: expressed in transfected cells; host or cells: HEK293T (ATCC CRL-3216), transient transfection
T1 sequence (Q5VWK5 24-629, other chains not shown): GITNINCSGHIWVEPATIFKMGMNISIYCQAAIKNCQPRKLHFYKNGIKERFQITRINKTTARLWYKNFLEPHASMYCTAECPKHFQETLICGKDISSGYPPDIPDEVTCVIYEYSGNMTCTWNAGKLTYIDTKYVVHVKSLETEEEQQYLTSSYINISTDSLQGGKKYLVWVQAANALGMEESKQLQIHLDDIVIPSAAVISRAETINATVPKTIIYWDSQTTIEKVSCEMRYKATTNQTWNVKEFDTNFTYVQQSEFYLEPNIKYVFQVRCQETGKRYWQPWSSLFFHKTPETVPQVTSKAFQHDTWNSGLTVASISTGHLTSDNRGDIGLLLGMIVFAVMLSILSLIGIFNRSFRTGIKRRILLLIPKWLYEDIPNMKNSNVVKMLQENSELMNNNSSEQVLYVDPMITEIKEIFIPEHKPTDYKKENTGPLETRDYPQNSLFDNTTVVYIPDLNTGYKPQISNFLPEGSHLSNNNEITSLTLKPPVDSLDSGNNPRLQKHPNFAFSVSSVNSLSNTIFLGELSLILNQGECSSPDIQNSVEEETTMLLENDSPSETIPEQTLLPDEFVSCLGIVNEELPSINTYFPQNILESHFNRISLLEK
Assay: P630-TMR NanoBRET binding assay, NL-IL23R with IL12Rβ1
Conditions: for BRET ratio, Specific (Mean) / BRET ratio, Non-specific (Mean): Fig. 2d, NL-IL23R with IL12Rβ1; for BRET ratio, Non-specific (Mean): with 10 μM P630; for BRET ratio with non-specific binding subtracted (Mean): Figure 2 sheet Panel f; for BRET ratio with non-specific binding subtracted (Mean) / % maximum BRET ratio / % of P630-TMR specific Bmax (Mean): NL-IL23R + IL12RB1; for % maximum BRET ratio / % of P630-TMR specific Bmax (Mean): Figure 2 sheet Panel g, Fig. 3d; for Mean NanoBRET binding signal (Figure 7 panel b): NL-IL23R +IL12RB1
From the text: A standard curve was used to predict the expression level of NanoLuc labelled receptor in each experiment (Supplementary Fig. 1).
Fig. 2 Creation and characterisation of a fluorescent cyclic peptide probe for IL23R. […] Data are normally mean ± SEM from five independent experiments. Details on absolute number of data points included for each concentration are provided in the associated Source Data file. In each individual saturation experiment triplicate determinations were normally made for total binding and duplicate measurements were made for non-specific binding.
Media was removed from white 96-well microplates containing transfected cells and replaced with fluoroprobe in the presence or absence of antagonist in 50 μL Hanks Balanced Salt Solution (HBSS) with 1 mg/mL BSA (Merck). After a 1-hour incubation at 37 °C without CO2, 5 μL of HBSS containing 77 μM furimizine was added to each well (final concentration 7 μM), the plate incubated for 5-minutes and the BRET signal measured using a PheraStar FS plate reader (BMG Labtech; data acquisition software version 5.41; MARS analysis software version 3.32) with a 450 ± 30 nm and >550 nm long pass filters.
Ligand binding data were fitted with the equation:2 BRETratio=Bmax[A]/([A]+KD)+(BA+C). Where ‘Bmax’ is the maximum specific binding BRET signal, ‘[A]’ is fluorescent probe concentration, ‘B’ is the non-specific binding component’s slope and ‘C’ is the Y intercept.
Specific binding data was generated by subtracting the BRET values gained in the presence of an excess of unlabelled probe from the BRET ratios gained in the absence of unlabelled probe. Specific binding data were fit using the equation:3 Y=Bmax[B]/(B+KD) where ‘Bmax’ is the maximum specific binding signal of the curve and ‘[B]’ is the concentration of fluorescent probe.

BRET ratio, Specific (Mean) (P630-TMR 0.457247 nM): 0.2512 | BRET ratio, Specific (Mean) (P630-TMR 1.37174 nM): 0.271 | BRET ratio, Specific (Mean) (P630-TMR 4.11523 nM): 0.315 | BRET ratio, Specific (Mean) (P630-TMR 12.3457 nM): 0.4472 | BRET ratio, Specific (Mean) (P630-TMR 37.037 nM): 0.6615 | BRET ratio, Specific (Mean) (P630-TMR 111.111 nM): 1.003 | BRET ratio, Specific (Mean) (P630-TMR 1000 nM): 1.323 | BRET ratio, Specific (Mean) (P630-TMR 3000 nM): 1.6368 | BRET ratio, Non-specific (Mean) (P630-TMR 0.457247 nM): 0.2426 | BRET ratio, Non-specific (Mean) (P630-TMR 1.37174 nM): 0.2389 | BRET ratio, Non-specific (Mean) (P630-TMR 4.11523 nM): 0.241 | BRET ratio, Non-specific (Mean) (P630-TMR 12.3457 nM): 0.2439 | BRET ratio, Non-specific (Mean) (P630-TMR 37.037 nM): 0.2477 | BRET ratio, Non-specific (Mean) (P630-TMR 111.111 nM): 0.2531 | BRET ratio, Non-specific (Mean) (P630-TMR 1000 nM): 0.3233 | BRET ratio, Non-specific (Mean) (P630-TMR 3000 nM): 0.4914 | BRET ratio, Non-specific (Mean) (P630-TMR […]): 0.2709 | BRET ratio with non-specific binding subtracted (Mean) (P630-TMR 0.457247 nM): 0.01279 | BRET ratio with non-specific binding subtracted (Mean) (P630-TMR 1.37174 nM): 0.03163 | BRET ratio with non-specific binding subtracted (Mean) (P630-TMR 4.11523 nM): 0.07414 | BRET ratio with non-specific binding subtracted (Mean) (P630-TMR 12.3457 nM): 0.203 | BRET ratio with non-specific binding subtracted (Mean) (P630-TMR 37.037 nM): 0.4147 | BRET ratio with non-specific binding subtracted (Mean) (P630-TMR 111.111 nM): 0.7498 | BRET ratio with non-specific binding subtracted (Mean) (P630-TMR 1000 nM): 1.0032 | BRET ratio with non-specific binding subtracted (Mean) (P630-TMR 3000 nM): 1.107 | % maximum BRET ratio / % of P630-TMR specific Bmax (Mean) (P630-TMR 0.457247 nM): 1.58% | % maximum BRET ratio / % of P630-TMR specific Bmax (Mean) (P630-TMR 1.37174 nM): 3.558% | % maximum BRET ratio / % of P630-TMR specific Bmax (Mean) (P630-TMR 4.11523 nM): 8.249% | % maximum BRET ratio / % of P630-TMR specific Bmax (Mean) (P630-TMR 12.3457 nM): 22.4565% | % maximum BRET ratio / % of P630-TMR specific Bmax (Mean) (P630-TMR 37.037 nM): 45.1459% | % maximum BRET ratio / % of P630-TMR specific Bmax (Mean) (P630-TMR 111.111 nM): 80.9844% | % maximum BRET ratio / % of P630-TMR specific Bmax (Mean) (P630-TMR 1000 nM): 106.516% | % maximum BRET ratio / % of P630-TMR specific Bmax (Mean) (P630-TMR 3000 nM): 100.024% | Mean NanoBRET binding signal (Figure 7 panel b) ([P630-TMR] 0.8 nM): -0.0001896 | Mean NanoBRET binding signal (Figure 7 panel b) ([P630-TMR] 4 nM): 0.1611 | Mean NanoBRET binding signal (Figure 7 panel b) ([P630-TMR] 20 nM): 0.6859 | Mean NanoBRET binding signal (Figure 7 panel b) ([P630-TMR] 100 nM): 1.691 | Mean NanoBRET binding signal (Figure 7 panel b) ([P630-TMR] 500 nM): 2.556 | Mean NanoBRET binding signal (Figure 7 panel b) ([P630-TMR] 2000 nM): 2.7354 | Kd (NL-IL23R and IL12Rβ1, mean ± SEM): 51.1 ± 7.3 nM
Compound: COc1ccc(C[C@H](NC(=O)[C@H]2NC(=O)[C@H](CCC(N)=O)NC(=O)[C@H](Cc3c[nH]c4ccccc34)NC(=O)[C@H]([C@@H](C)O)NC(=O)[C@H](CC(N)=O)NC(=O)[C@@H](NC(C)=O)C(C)(C)SSC2(C)C)C(=O)N[C@@H](Cc2ccc3ccccc3c2)C(=O)NC(C)(C)C(=O)N[C@@H](CCC(=O)O)C(=O)N[C@@H](CC(N)=O)C(=O)N[C@@H](CC(N)=O)C(=O)N[C@@H](CCCCNC(=O)c2ccc3c(c2)C(=O)OC32c3ccc(N(C)C)cc3Oc3cc(N(C)C)ccc32)C(N)=O)cc1 [P630-TMR] (Ac-[Pen]NTWQ[Pen]Y(Me)[2Nal][Aib]ENNK(5TAMRA)-NH2; disulfide 1-6)
